# From a melting point compilation (Tetko et al.; mined from patent text by program, amines drawn as free bases though some values may be those of a salt)
row,Structure (SMILES),melting point [°C]
1,CCC(CC)Sc1cc2c(cc1Cl)N=C(C(N)=O)NS2(=O)=O,287 to 289
2,CCOC(=O)NCn1cccc1C(=O)c1ccc(Cl)cc1Cl,79 to 80
3,CCc1c(C(F)(F)F)nn(-c2ccc(S(N)(=O)=O)nc2)c1-c1ccc(-c2cncs2)c(F)c1,189 to 191
4,CN1CCC(N(C)c2ncc3ncnc(Nc4cccc([N+](=O)[O-])c4)c3n2)CC1,199 to 203
5,COc1c(C2CCN(CCCCNC(=O)c3ccc(-c4ccc(C#N)cc4)nc3)CC2)ccc2c1CCCC2,166 to 168
6,O=C1c2ccccc2C(=O)N1CC(=O)N1c2ccccc2N(Cc2ccccc2)C(=O)CC1c1ccccc1 (centres undefined),127 to 128
7,CC(C)(C)OC(=O)NC1Cc2ccccc2C1Oc1ccccc1 (centres undefined),99 to 101
8,COc1ccc(Br)cc1C(=O)NCCc1ccc(CCC(=O)O)cc1,120 to 121
9,COC(=O)c1cc(I)cn1CCF,49 to 50.5
10,CN1CCC(Oc2[nH]nc(-c3ccc(Cl)cc3)c2-c2ccncc2)CC1,256 to 257
11,O=[N+]([O-])C1CC=CCC1c1ccccc1 (centres undefined),114 to 116
12,CCCc1nc(C)c(C(=O)OCC)n1Cc1ccc2oc(-c3ccccc3NS(=O)(=O)C(F)(F)F)c(Br)c2c1,123 to 125
13,O=C(O)Cn1nc(-c2ccccc2O)nc1-c1ccccc1O,231 to 233
14,Cc1c(N2CC(O)C2)c(F)cc2c(=O)n(N)c(=O)n(C3CC3)c12,212 to 214
15,CC1=C(c2ccncc2)SCC(=O)N1C,139 to 140
16,CNCC(O)COc1ccc(C#N)cc1 (centres undefined),100 to 102
17,CCc1nc2c(N)nc3ccc(-c4ccccc4)cc3c2n1CC(C)C,233 to 235
18,CSc1nnc(-c2snnc2C)o1,65
19,O=C1c2cccc3cccc(c23)C(=O)N1CCCCN1CCC(O)(c2ccccc2)CC1,138 to 139
20,COC(=O)/C=C(/OC)c1cccc2ccc(Br)cc12,96 to 97
21,O=P(O)(O)C(NCc1ccccc1)c1ccccc1 (centres undefined),233 to 236
22,COc1ccc(CN2Cc3c(C(N)=O)ncn3-c3ccc(Cl)cc3C2=O)c(OC)c1,> 220
23,CCCCC(O)CN1N=CCCC1c1ccc(Cl)c(Cl)c1 (centres undefined),80 to 81
24,CN1Cc2c(-c3noc(CN)n3)ncn2-c2ccccc2C1=O,192 to 195

row,Structure (SMILES),melting point [°C]
1,O=C1CCC2(F)C3Cc4ccc(O)c5c4C2(CCN3CC2CC2)C1O5 (centres undefined),188 to 190
2,CN(CC#CC1=Cc2ccccc2Sc2ccc(Cl)cc21)CCO,86 to 88
3,CC(C)(CN)c1ccc2nc(-c3ccc(O)cc3)[nH]c2c1,178 to 182
4,Cc1ccc(CC2CCN(C(=O)C(=O)Nc3ccc4[nH]c(=O)[nH]c4c3)CC2)cc1,> 280
5,CC(=O)OC1CC2=CCC3C4CCC(C(C)CO)C4(C)CCC3C2(C)C(O)C1 (centres undefined),121
6,CN(C)C(=O)N(CCl)c1ccc(Cl)cc1,37 to 43
7,COC(=O)c1sc2ccccc2c1O,109 to 110
8,CCOC(=O)CCCNc1ccc2oc(-c3ccc4ccc(Cl)cc4n3)cc2c1,154 to 155
9,COc1c(/C=C/c2ccc(NS(C)(=O)=O)cc2)cc(N2CCC(=O)NC2=O)cc1C(C)(C)C,260 to 261
10,Cc1cccc(Cl)c1N1C(=O)CON(C)C1=S,176 to 178
11,COC(=O)c1ccc2ncccc2c1C(=O)OC,124 to 125
12,O=c1[nH]c(NCCCn2ccnc2)nc2c1ncn2C1CC(O)C(CO)O1 (centres undefined),245 to 247
13,CC(C)(C)OC(=O)N[C@H]1CC[C@H](CN2CCN(c3cccc4c3CCC4)CC2)CC1,131 to 134
14,O=C1CCN(C(=O)Cl)c2ccc(Cl)cc21,114 to 116
15,O=C(C=Cc1ccc2c(c1)OCO2)c1cccc(OCCCCCBr)c1,87 to 88
16,CS(=O)(=O)c1ccc(C2=C(c3ccc(F)cc3)C(=O)N(C3CC3)C2)cc1,170 to 172
17,NC1CN(c2cc3c(cc2F)c(=O)c(C(=O)O)cn3C2CC2)C1,246 to 247
18,CCOC(=O)c1cnc2ccnn2c1Cl,93 to 95
19,O=C(c1ccc(O)cc1)c1c(Cc2ccccc2)oc2ccccc12,146 to 149
20,COc1cc2c(cc1Nc1ncc(Cl)c(N[C@@H]3CCCC[C@H]3NS(C)(=O)=O)n1)CCN(CCNC(C)=O)CC2,108 to 118
21,CCOC(=O)c1c(C(F)F)nc(C(F)(F)F)c(C(=O)OCC)c1NC(C)(C)C,30 to 31
22,CNS(=O)(=O)C[C@H]1c2cc(OCCCC(F)(F)F)ccc2OC(C)(C)[C@@H]1O,178 to 179
23,O=C1c2ccccc2C(=O)N1CC(=O)N1c2ccccc2N(Cc2ccccc2)C[C@@H]2CCC[C@H]21 (relative stereo),232 to 234
24,CC(C)(C)OC(=O)Nc1cc(Cl)c(-c2ccccc2)cc1N,109 to 111

# The next lines start with the values.
row,melting point [°C],Structure (SMILES)
1,185,CCCC1=C(C(=O)OCC)C(c2c(F)cccc2F)c2c[nH]nc2N1 (centres undefined)
2,109,COc1ccc(Cl)cc1C(=O)NCc1ccc(-c2ccc(OC(C)(C)CO)cc2)cc1
3,145 to 148,CCC1(CCCCN2CCN(c3ccccc3Cl)CC2)C(=O)Nc2ccccc21 (centres undefined)
4,98 to 100,Nc1ncccc1OCc1cccc(Cl)c1F
5,94 to 96,COc1cc(C=O)cc(OC)c1N
6,89,OCC1OC(n2cnc3cncnc32)CC1F (centres undefined)
7,165 to 172,COc1cc(O)c(C(=O)c2ccccc2)cc1S(=O)(=O)Cl
8,180 to 181,CC1CCN(CCNc2nn3cnnc3c3c2CCCC3)CC1
9,98,CCCCOc1ccc(S(=O)(=O)C2(C(=O)O)CCN(Cc3ccc(OCCN4CCCCC4)cc3)CC2)cc1
10,70 to 71,Cc1ccc2[nH]c(=O)sc2c1
11,87 to 89,COC(=O)C=Cc1nc(C(=O)CCCC(=O)OC)ccc1OC
12,143 to 144,CCOC(=O)c1cnncc1NC(=O)Cc1c(F)cc(F)cc1F
13,198 to 200,NC(=O)c1nnn(Cc2cc(Cl)c(C(=O)c3ccc(Cl)cc3)c(Cl)c2)c1N
14,111 to 113,CCc1ccc(C(=O)Nc2ccccc2)cc1[N+](=O)[O-]
15,44 to 46,CC(CCCC(=O)CCCC(C)(C(=O)O)c1ccccc1)(C(=O)O)c1ccccc1 (centres undefined)
16,213 to 215,N#Cc1nc(NCc2cnn(-c3c(Cl)cc(C(F)(F)F)cc3Cl)n2)[nH]c1C#N
17,117 to 120,CCn1ncnc1COc1nc2c(cc1C(C)(C)C)nnn2-c1ccccc1F
18,48 to 52,O=C(CC1C(=O)CCc2ccccc21)c1ccccc1 (centres undefined)
19,130 to 136,O=C1c2cc(Cl)ccc2CN2C(=NO)CCC12 (centres undefined)

row,melting point [°C],Structure (SMILES)
1,165 to 167,COc1ccc(C(=O)c2ccc(OCc3coc(-c4ccccc4)n3)cc2)c(OC(C)(C)C(=O)O)c1
2,124 to 126,CCOC(=O)c1cc(=O)c2cccc(Br)c2o1
3,207 to 209,O=[N+]([O-])c1ccc(Sc2ncc[nH]2)cc1
4,206 to 208,O=C(O)C1=Cc2cc(Br)cc(F)c2OC1C(F)(F)F (centres undefined)
5,256 to 267,CC(C)Oc1ccc2nc3ccc(C(=O)O)cn3c(=O)c2c1
6,179 to 180,Cc1c(NC(=O)c2ccc(-c3ccc(F)cc3)cc2)ccc2cc(CN(C(C)C)C(C)C)cnc12
7,211 to 215,Cc1ccccc1C(=O)c1ccc(Nc2ccccc2NS(=O)(=O)c2ccccc2)cc1Cl
8,40 to 43,COC(=O)c1cscc1O
9,106,Cc1cc(-n2cncn2)c2cccc(OCc3c(Cl)ccc(S(=O)(=O)N4CCC[C@H]4C(=O)NCCN(C)C)c3Cl)c2n1
10,90,COC1OC(=O)C(OC)(OC)C1Cl (centres undefined)
11,117 to 118,CSc1cc2cnc(-c3ccccc3)n2c(SC)n1
12,70 to 71,O=CN1CCC(c2ccccc2Cc2ccccc2)C1 (centres undefined)
13,120 to 122,CC1=C(C(=O)O)C(c2ccccc2[N+](=O)[O-])C(C(=O)O)=C(C)N1
14,179 to 180,COC1=C(Cl)C(=O)NC1=Nc1ccccc1
15,52 to 54,"CCCOC(C)Cc1ccc(-c2ccc(O)cc2)cc1 (single isomer, unassigned; (-))"
16,248 to 250,CCCCc1ncc(/C=C2/C(=O)NC(=O)N2C)n1Cc1ccc(C(=O)O)cc1
17,136 to 138,CCCCCCCCCCCCCCCCNc1ccc(C(=O)NS(=O)(=O)c2ccccc2)cc1
18,60,CCOP1(=O)OCc2ccccc21 (centres undefined)
19,42,C=C(C(=O)c1ccc(Cl)cc1)c1ccccc1

row,melting point [°C],Structure (SMILES)
1,110 to 111,Cc1ccc(SC(Cl)=C(C(Cl)=C(Cl)Cl)[N+](=O)[O-])cc1
2,189 to 191,COC(=O)c1cc(NC(C)=O)c(F)c(-c2ccc(Cl)c(OC)c2F)n1
3,71 to 73,CCCC(=O)NCCC1CCc2ccc3c(c21)OCO3 (centres undefined)
4,66,C=CCOc1ccc(OC(C(=O)C(C)(C)C)n2cncn2)cc1 (centres undefined)
5,90 to 91,CC(=O)CN(C(=O)c1ccco1)c1c(C)cccc1C
6,138 to 140,CCC1(CCCCN2CCc3sccc3C2)C(=O)Nc2ccc(C)cc21 (centres undefined)
7,150,C=C(Br)CN1Cc2cccc3[nH]c(=O)n(c23)CC1C (centres undefined)
8,108,CCOC(=O)C=C(Nc1ccc(O)c(=O)cc1)C(=O)OCC
9,220 to 221,COc1ccc(C(=O)O)c2cccc(S(=O)(=O)N(C)C)c12
10,194 to 196,CCCCCCCCCCCCCCCCCC(=O)c1ccc(OC)c(C(=O)O)c1
11,166 to 168,CC1=NC(=O)C(Cc2c[nH]c3ccccc23)N(O)C1=O (centres undefined)
12,111 to 114,O=C(O)CCCCc1cc(O)c(O)cc1[N+](=O)[O-]
13,113 to 114,CCOC(=O)n1ccc2cc(N)ccc21
14,137,O=CNNC(C(=O)O)c1ccccc1 (centres undefined)
15,270 to 271,CC1Cc2c(F)c(F)cc3c(=O)c(C(=O)O)cn(c23)N1C (centres undefined)
16,171 to 173,CC(=O)Nc1ccc(C=Nc2cc(Cl)c(N=CN(C)C)c(Cl)c2)cc1
17,140 to 141,CCCc1nn(C)c2c(=O)[nH]c(-c3ccccc3OC)nc12
18,150,COc1cc2c(N3CCN(Cc4ccccc4)CC3)nc(-c3ccc(Cl)cc3)nc2c(OC)c1OC
